Some test systems named below: HCT-116; NCI-H226; SR; HOP-62; DU-145; SN12C; SF-539; IGROV-1; OVCAR-5; RPMI-8226; U-251; OVCAR-3; SK-MEL-28; A549; NCI-H23; BT-549; UACC-257; MCF7; OVCAR-8; CCRF-CEM.
Common to all, as to assay: NCI tumour cell line growth inhibition, 48 h

Molecules are shown by their SMILES.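 48-hour exposure; five concentrations; linearly interpolated endpoints. GI50 is the concentration that inhibits growth by half.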 Activity calls are given as the source filed them. Rule as the data show it: active = GI50 up to about 1.1 µM and inactive = higher. A value given as a limit tells only on which side of the number the result lay.

Consider `CN(C)Cc1ccc(O)c(CN(C)C)n1`, for which the GI50 in the assay on HCT-116, in the assay on NCI-H226, with SR, in the assay on HOP-62, in the assay with DU-145 and in the assay on SN12C was > 100 µM (inactive) throughout. In addition, the GI50 with SF-539, with IGROV-1, in the assay with OVCAR-5, in the assay on RPMI-8226, with U-251 and in the assay on OVCAR-3 was > 100 µM (inactive) in each case. The GI50 in the assay with SK-MEL-28, with A549, in the assay on NCI-H23, in the assay with BT-549, in the assay with UACC-257 and in the assay with MCF7 was > 100 µM (inactive) in each case. The GI50 in the assay with OVCAR-8 is > 100 µM (inactive).

With `CC(=O)Oc1ccc2c(c1)c1c(OC(C)=O)c3ccccc3c(OC(C)=O)c1n2Cc1cccc(C)c1`, the GI50 is 33.2 µM (inactive) in the assay on HCT-116; > 100 µM (inactive) in the assay with NCI-H226; 24.3 µM (inactive) with SR; 25.3 µM (inactive) in the assay with HOP-62; > 100 µM (inactive) in the assay with DU-145; > 100 µM (inactive) in the assay with SN12C. In addition, the GI50 with SF-539 is 25.1 µM (inactive); in the assay on IGROV-1 it was 21.2 µM (inactive); in the assay on OVCAR-5, 34.4 µM (inactive); with RPMI-8226, 20.5 µM (inactive); with U-251, 22.3 µM (inactive); with OVCAR-3, 21.4 µM (inactive). In addition, the GI50 in the assay on SK-MEL-28 is > 100 µM (inactive); with A549 it was 31.3 µM (inactive); in the assay on NCI-H23, 38.7 µM (inactive); in the assay on BT-549 it was 35.1 µM (inactive); with MCF7 it was 44.3 µM (inactive); in the assay with OVCAR-8 it was 48.6 µM (inactive). For the same compound, in the assay on CCRF-CEM, the GI50 is 17.1 µM (inactive).

As to `O=C(OCC1OC2OC(c3ccccc3)(n3ccc4c([N+](=O)[O-])ccnc43)OC2C1OC(=O)c1ccccc1)c1ccccc1` (configuration not stated), the GI50 in the assay on HCT-116, in the assay on NCI-H226, in the assay on SR, with HOP-62, with DU-145 and in the assay on SN12C was > 100 µM (inactive) each time. The GI50 with IGROV-1, in the assay with OVCAR-5, in the assay on RPMI-8226, in the assay with U-251, with OVCAR-3 and in the assay on SK-MEL-28 was > 100 µM (inactive) in each case. The GI50 in the assay with A549, in the assay on NCI-H23, in the assay on BT-549, in the assay on UACC-257, with MCF7 and with OVCAR-8 was > 100 µM (inactive) throughout. The GI50 in the assay with CCRF-CEM is > 100 µM (inactive).

On to `O=C1/C(=C/c2ccc(OC(=O)c3ccc(Cl)cc3)cc2)CCC/C1=C\c1ccc(OC(=O)c2ccc(Cl)cc2)cc1`, for which the GI50 in the assay on HCT-116 was > 100 µM (inactive); with SR, > 100 µM (inactive); with HOP-62 it was 19.4 µM (inactive); in the assay on DU-145 it was > 100 µM (inactive); with SN12C it was > 100 µM (inactive); in the assay with SF-539, 30 µM (inactive). Also, the GI50 in the assay on IGROV-1 is > 100 µM (inactive); with OVCAR-5 it was > 100 µM (inactive); in the assay on RPMI-8226, > 100 µM (inactive); in the assay with U-251 it was 64.3 µM (inactive); with OVCAR-3, > 100 µM (inactive); in the assay on SK-MEL-28, > 100 µM (inactive). Moreover, the GI50 in the assay with A549, in the assay with NCI-H23, with BT-549, in the assay on UACC-257, with MCF7 and in the assay with OVCAR-8 was > 100 µM (inactive) throughout. The GI50 in the assay on CCRF-CEM was > 100 µM (inactive).

With `O=C(c1ccccc1)C1C(c2ccccc2[N+](=O)[O-])N1C1CCCCC1` (configuration not stated), the GI50 in the assay on HCT-116 was 1.8 µM (inactive); with NCI-H226, 17 µM (inactive); with SR, 0.634 µM (active); in the assay on HOP-62, 15.1 µM (inactive); in the assay on DU-145, 10.1 µM (inactive); in the assay with SN12C it was 4.39 µM (inactive). Besides, the GI50 in the assay on SF-539 is 2.1 µM (inactive); in the assay with IGROV-1, 4.25 µM (inactive); with OVCAR-5 it was 17 µM (inactive); with RPMI-8226, 1.72 µM (inactive); in the assay on U-251, 6.01 µM (inactive); in the assay on OVCAR-3, 2.5 µM (inactive). Also, the GI50 was > 42.3 µM (inactive) with SK-MEL-28; 16.6 µM (inactive) with A549; 16.4 µM (inactive) with NCI-H23; 11.6 µM (inactive) in the assay with BT-549; 3.21 µM (inactive) in the assay on UACC-257; 3.65 µM (inactive) in the assay on MCF7. For the same compound, the GI50 with OVCAR-8 is 1.86 µM (inactive).

For the compound `COc1cc(C(=O)NNC(=O)c2cc(Br)ccc2NC(=O)c2cccs2)cc(OC)c1OC`, the GI50 with HCT-116 was 18.7 µM (inactive); in the assay on NCI-H226, 13.7 µM (inactive); in the assay with SR it was 22.9 µM (inactive); in the assay on HOP-62, 16.3 µM (inactive); in the assay with DU-145 it was 29.3 µM (inactive); with SN12C, 20 µM (inactive). Moreover, the GI50 is 15.4 µM (inactive) in the assay with SF-539; 22.6 µM (inactive) with IGROV-1; 16.4 µM (inactive) with OVCAR-5; 13.2 µM (inactive) with RPMI-8226; 17.1 µM (inactive) in the assay on U-251; 24.2 µM (inactive) in the assay with OVCAR-3. Further, the GI50 is 21.2 µM (inactive) in the assay on A549; 19.4 µM (inactive) in the assay with NCI-H23; 22.3 µM (inactive) in the assay on BT-549; 22.5 µM (inactive) in the assay on UACC-257; 14.4 µM (inactive) with MCF7; 19.1 µM (inactive) with OVCAR-8. The GI50 in the assay on CCRF-CEM is 18.1 µM (inactive).

For the compound `CC(=O)OC1=CC2=CC[C@H]3[C@@H]4CCC(=O)[C@@]4(C)CC(=O)[C@]3(S)[C@@]2(C)CC1`, the GI50 with HCT-116 is 21.7 µM (inactive); in the assay with SR, 23.6 µM (inactive); in the assay with HOP-62, 38.9 µM (inactive); in the assay on DU-145 it was 62.5 µM (inactive); in the assay on SN12C, 37.6 µM (inactive); in the assay with SF-539, 20 µM (inactive). The GI50 is 27 µM (inactive) in the assay on IGROV-1; > 100 µM (inactive) with OVCAR-5; 20.9 µM (inactive) in the assay on RPMI-8226; 29.6 µM (inactive) in the assay on U-251; 22.7 µM (inactive) in the assay with OVCAR-3; 55 µM (inactive) with SK-MEL-28. The GI50 is 49.4 µM (inactive) with A549; 36.6 µM (inactive) in the assay with NCI-H23; 35 µM (inactive) in the assay with BT-549; 27.3 µM (inactive) with UACC-257; 30.6 µM (inactive) in the assay with MCF7; 31.3 µM (inactive) in the assay on OVCAR-8. Besides, the GI50 in the assay with CCRF-CEM was 29 µM (inactive).

For `COc1cc2c(cc1OCCCCN1CCN(CCCCOc3cc4c(cc3OC)C(=O)N3CCC[C@H]3C=N4)CC1)N=C[C@@H]1CCCN1C2=O`, the GI50 with HCT-116 was 0.0216 µM (active); in the assay with NCI-H226, < 0.01 µM (active); in the assay with SR, 1 µM (active); with HOP-62, 0.0236 µM (active); with DU-145, 0.0361 µM (active); in the assay with SN12C it was < 0.01 µM (active). The GI50 is < 0.01 µM (active) in the assay with SF-539; 0.146 µM (active) in the assay with IGROV-1; 0.0417 µM (active) in the assay with OVCAR-5; < 0.0125 µM (active) in the assay on RPMI-8226; 0.0167 µM (active) in the assay with U-251; 0.0372 µM (active) in the assay on OVCAR-3. The GI50 is 0.0206 µM (active) in the assay on SK-MEL-28; 0.0923 µM (active) with A549; < 0.0241 µM (active) with NCI-H23; 0.0202 µM (active) in the assay on BT-549; 0.0627 µM (active) in the assay on UACC-257; < 0.0318 µM (active) with MCF7. Further, in the assay with OVCAR-8, the GI50 is < 0.0172 µM (active).

`CC(C)(C)NCc1cc(C(C)(C)C)cc(-c2ccc(Cl)cc2)c1O`: the GI50 in the assay on HCT-116 was 13.2 µM (inactive); in the assay on SR it was 10.9 µM (inactive); in the assay on HOP-62 it was 6.14 µM (inactive); in the assay on DU-145 it was 11.7 µM (inactive); with SN12C it was 15.2 µM (inactive); in the assay with SF-539, 11.9 µM (inactive). For the same compound, the GI50 in the assay with IGROV-1 was 11.2 µM (inactive); in the assay on OVCAR-5, 13.8 µM (inactive); in the assay with RPMI-8226, 9.53 µM (inactive); in the assay with U-251 it was 11.9 µM (inactive); in the assay on OVCAR-3 it was 15.6 µM (inactive); in the assay on SK-MEL-28, 13.8 µM (inactive). Moreover, the GI50 in the assay with A549 was 16 µM (inactive); in the assay on NCI-H23, 12.6 µM (inactive); with BT-549 it was 13.7 µM (inactive); in the assay on UACC-257 it was 28.2 µM (inactive); in the assay with MCF7 it was 14.6 µM (inactive).

Consider `CCOP(C)(=O)C(N)Cc1ccc(OC)c(OC)c1` (configuration not stated), for which the GI50 in the assay on HCT-116, in the assay with NCI-H226, with SR, with HOP-62, with DU-145 and in the assay on SN12C was > 100 µM (inactive) each time. Also, the GI50 with SF-539, with IGROV-1, in the assay with RPMI-8226, in the assay on U-251, with OVCAR-3 and in the assay on SK-MEL-28 was > 100 µM (inactive) in each case. The GI50 in the assay on A549, in the assay on NCI-H23, in the assay on BT-549, in the assay with MCF7, in the assay on OVCAR-8 and with CCRF-CEM was > 100 µM (inactive) throughout.

These data come from ChEMBL document CHEMBL1201862, “PubChem BioAssay data set” (2004).
